Measurements published in ChEMBL document CHEMBL5325456, “5-(4-Hydroxyphenyl)-3H-1,2-dithiole-3-thione derivatives of brefeldin A: Design, synthesis and cytotoxicity in MDA-MB-231 human breast cancer cells” (Bioorg Med Chem, 2023).

Assays:
[1] = test system: A549; test: Antiproliferative activity against human A549 cells assessed as reduction in cell viability incubated for 48 hrs by CCk-8 assay; type: functional, cell-based; conditions: A549, 48 h
[2] = test system: DU-145; test: Antiproliferative activity against human DU-145 cells assessed as reduction in cell viability incubated for 48 hrs by CCk-8 assay; type: functional, cell-based; conditions: DU-145, 48 h
[3] = test system: A-375; test: Antiproliferative activity against human A-375 cells assessed as reduction in cell viability incubated for 48 hrs by CCk-8 assay; type: functional, cell-based; conditions: A-375, 48 h
[4] = test system: HeLa; test: Antiproliferative activity against human HeLa cells assessed as reduction in cell viability incubated for 48 hrs by CCk-8 assay; type: functional, cell-based
[5] = test system: HepG2; test: Antiproliferative activity against human HepG2 cells assessed as reduction in cell viability incubated for 48 hrs by CCk-8 assay; type: functional, cell-based; conditions: HepG2, 48 h
[6] = test system: MDA-MB-231; test: Antiproliferative activity against human MDA-MB-231 cells assessed as reduction in cell viability incubated for 48 hrs by CCk-8 assay; type: functional, cell-based; conditions: MDA-MB-231, 48 h
[7] = Antiproliferative activity against human L02 cells assessed as reduction in cell viability incubated for 48 hrs by CCk-8 assay; type: toxicity, cell-based
[8] = Selectivity index, ratio of IC50 for antiproliferative activity against human L02 cells to IC50 for antiproliferative activity against human MDA-MB-231 cells; type: toxicity, cell-based; conditions: L02 cells and MDA-MB-231 cells, read-out: Ratio IC50

IC50 [1]	IC50 [2]	IC50 [3]	IC50 [4]	IC50 [5]	IC50 [6]	Structure (SMILES)	IC50 at 48 h [7]	selectivity ratio [8]
330 nM	> 40000 nM	1070 nM	300 nM	7030 nM	1340 nM	C[C@H]1CCC/C=C/[C@@H]2C[C@H](O)C[C@H]2[C@H](OC(=O)c2ccccc2C(=O)Oc2ccc(-c3cc(=S)ss3)cc2)/C=C/C(=O)O1	3550 nM	2.64
670 nM	1110 nM	530 nM	370 nM	1720 nM	510 nM	C[C@H]1CCC/C=C/[C@@H]2C[C@H](O)C[C@H]2[C@H](OC(=O)CCCC(=O)OCCCCCCOc2ccc(-c3cc(=S)ss3)cc2)/C=C/C(=O)O1	3240 nM	6.35
2730 nM	1850 nM	1690 nM	3470 nM	4650 nM	1190 nM	C[C@H]1CCC/C=C/[C@@H]2C[C@H](O)C[C@H]2[C@H](OC(=O)CCC(=O)OCCOc2ccc(-c3cc(=S)ss3)cc2)/C=C/C(=O)O1	8300 nM	6.97

Structure (SMILES)	IC50 [1]	IC50 [2]	IC50 [3]	IC50 [4]	IC50 [5]	IC50 [6]	IC50 at 48 h [7]	selectivity ratio [8]
C[C@H]1CCC/C=C/[C@@H]2C[C@H](O)C[C@H]2[C@H](O)/C=C/C(=O)O1 [BREFELDIN A]	56 nM	160 nM	39 nM	44 nM	120 nM	54 nM	94 nM	1.74
